Molecules are shown by their SMILES.

Test [1] addresses T1, TRPA1 (Mus musculus, UniProt Q8BLA8).
T1 construct: expressed in transfected cells; host or cells: HEK293 cells stably expressing TRPA1
The experiment in a line: TRPA1 inhibitory activity, IonWorks Barracuda (IWB) automatic patch clamp detection. The class given is cell-based. The settings on record: HEK293 cells stably expressing TRPA1, AITC-induced current; read-out: IC50(μM) against TRPA1 in automatic patch clamp detection. The protocol: In this example, the compounds prepared in some examples of the present invention (shown in Table 1) were tested for their inhibitory activity on the transient receptor potential channel protein TRPA1. Wherein, compound of formula A (WO2010075353) was used as positive control: […]
Test method by using IonWorks Barracuda (IWB) automatic patch clamp detection: HEK293 cells stably expressing TRPA1 were placed in a 37° C., 5% CO2 incubator and incubated with DMEM medium containing 15 μg/mL Blasticidin S HCl, 200 μg/mL Hygromycin B and 10% FBS serum in a T175 culture flask. When the cell density grew to […], the culture medium was removed, the cells were washed with calcium and magnesium free phosphate buffered saline (PBS), and 3 mL of Trypsin was added and digested for 2 minutes, and 7 mL of culture medium was added to terminate the digestion. […]
Data recording and current amplitude measurement and export were completed by IWB Software (version 2.5.3, Molecular Devices Corporation, Union City, CA). The statistics of the well with a sealing impedance lower than 20 M Ω were not recorded. The original current data was corrected by software, the TRPA1 current amplitude was measured in +100 mV. […] The dose-effect curve and IC50 of compounds were fitted and calculated by GraphPad Prism 5.02 (GraphPad Software, San Diego, CA).

For test [2], the system named is postoperative pain model in rat. In words: Postoperative pain model in rat, mechanical hyperalgesia test. The settings on record: 10 mg/kg intramuscular injection. The class given is in vivo. Here is the method: Injection of compound I-1: 36.13 mg of compound I-1 prepared in Example 2 was weighed and added into 3.140 mL of normal saline, and well mixed by vortex;
The solvent of the test compound I-1 was normal saline, the administration dose was 10 mg/kg, and the administration method was intramuscular injection. 36.13 mg of the compound I-1 was weighed and added into 3.140 mL normal saline, and well mixed by vortex. The reference compound used in the experiment was bupivacaine injection, purchased from Shanghai Zhaohui Pharmaceutical Co., Ltd., in a dose of 10 mg/kg via intramuscular injection.
Aseptic operation was performed during surgery, surgical instruments (scissors, forceps, scalpel, surgical cotton, suture thread) were disinfected before the operation. The rats were anesthetized with sodium pentobarbital (50 mg/kg, intraperitoneal injection), and the toes of the rats were squeezed to confirm that the animals were completely anesthetized before the surgery. Ophthalmic ointment was applied to the animal's eyes to prevent the animal's cornea from drying out. Iodophor and 70% ethanol were used to disinfect the skin of the surgery area on the sole of the left hind foot three times, and the surgery was started after the skin was dried. Starting at 0.5 cm from the heel, a 1 cm long incision was made longitudinally toward the toe. After cutting the skin, the flexor digitorum brevis was lifted to make longitudinal blunt injury. After pressing to stop the bleeding, the wound was sutured. The surgical instruments were cleaned and sterilized with hot bead sterilizer. After the surgery, the animals were placed on an electric blanket and injected subcutaneously with 5 mL normal saline to prevent dehydration. When the animal was completely awake (free to move), put the animal back into the cage. […]
The rat was placed alone in a plexiglass box with a grid on the bottom of the box to ensure that the rat's feet can be tested. […] During the test, the animal's rapid foot shrinkage was recorded as a pain response. The animal's foot shrinkage when the test fiber left the animal's skin was also recorded as a pain response. If the animal moved or walked, it would not be recorded as the pain response, the test should be repeated. […] The mechanical hyperalgesia test results are recorded in the table of FIG. 10, in which pain response is indicated with an “x” and no pain response is indicated with an “o.”
Mechanical hyperalgesia was expressed as the paw withdrawal threshold (PWT) in the behavioral test of rats, which was calculated according to the following equation: 50% response threshold (g)=(10(Xf+k))/10,000 • Xf=the final test fiber value used in the test • K=table value (Chaplan et al. 1994, page 62) • □=Average difference 5. […]

For test [3], the system named is hot plate induced pain model in rat. In words: Hot plate induced pain model in rat. The class given is in vivo, Sprague-Dawley rats. The following applies: 100 mg/kg intraperitoneal. Here is the method: Male, mature and unmated healthy Sprague-Dawley rats were selected, and the temperature of the cold/hot plate (product model: PE34, US IITC) was adjusted to a constant temperature of 53±0.1° C., and rats with painful response such as foot licking, foot shaking or slight jumping within 5-10 s were screened (abandoned those who evaded and jumped). […] The tested compound was freshly formulated on the day of administration. A 0.9% NaCl normal saline solution was prepared as a vehicle, an appropriate amount of the test compound was added to the required volume of normal saline, and the mixture was fully suspended to prepare the drug at a concentration of 1 mg/ml. […] The latency of thermal pain was measured at 0.5 h, 1 h and 2 h after drug administration. To avoid scalding the animals on the hot plate, the maximum latency was set to 30 s. The analgesic effect of each compound was evaluated using the maximum possible effect (MPE), i.e. MPE %=[(Post drug latency-baseline latency)/(30−baseline latency)]×100. Statistics of MPE % at different time points.

In test [4] the test system is SNL model in rat. The experiment in a line: SNL model in rat, mechanical hyperalgesia test. The format is in vivo, SD rats. The settings on record: 100 mg/kg intragastric, 1 hour after administration; control group 3.967 ± 0.775.
Procedure: SD rats were taken for surgery, male, SPF grade, mass 150 g-180 g. The surgical procedure was performed aseptically. The animals were anesthetized with sodium pentobarbital (50 mg/kg, intraperitoneal injection). The surgical area of the waist of animals was shaved, and the skin was disinfected three times with iodophor and 70% ethanol. Start the operation after the skin was dry. A longitudinal incision was made in the posterior part of the sacral bone of the animal's waist with a scalpel to expose the left paravertebral muscles, and the muscle tissue was separated with a distractor to expose the vertebra. The left spinal nerves L5 and L6 were separated, ligated with 6-0 silk thread, and the wounds were sutured. After the surgery, the animals were placed on an electric blanket and injected subcutaneously with 5 mL normal saline to prevent dehydration. When the animal was completely awake (free to move), put the animal back into the cage.
After the surgery, the animals were adapted in the experimental environment for 15 minutes/day for 3 days.
After administration, mechanical hyperalgesia test was performed. The rats were placed individually in a plexiglas box with a grid at the bottom of the box to ensure that the feet of the rats can be tested. Rats would adapt for 15 minutes before the test. […] The rapid paw withdrawal of the animal during the test was recorded as a pain response. The paw withdrawal of the animal when the test fiber left the animal's skin was also recorded as a pain response. If the animal moved or walked, it will not be recorded as a pain response, the test should be repeated. […]
Mechanical hyperalgesia was expressed as the paw withdrawal threshold (PWT) in the behavioral test of rats, which was calculated according to the following equation: 50% response threshold (g)=(10(^Xf+kδ))/10,000 • Xf=the final test fiber value used in the test • K=table value • δ=Average difference
Data were collected using Excel software and analyzed using Prism 6.01 (Graph pad software, Inc.) software.
Test [5] concerns formalin pain model in mice. The experiment in a line: Formalin pain model in mice. The following applies: Mus musculus, ip; intraperitoneal, phase II (10-60 min), dose that halves licking time vs blank control; read-out: analgesic potency ED50 in phase II pain. The class given is in vivo, C57BL/6 mice. From the text: 150 C57BL/6 mice (male, 9 weeks) were randomly divided into 15 groups with 10 mice for each group, and were used for the analgesic activity test of 3 compounds in the formalin pain model in mice: the compound I-1 group (compound I-1 prepared in Example 2, its hydrochloride was used in the experiment), the S-duloxetine group (its hydrochloride was used in the experiment) and the compound C1 group (compound C1 prepared in Comparative Example 1, its hydrochloride was used in the experiment), respectively. Before the start of the experiment, the mice were allowed to adapt to the experimental environment for 72 hours, during which there was no need to fast for food or water. The tested drugs were administrated by intraperitoneal injection, and the doses were as follows: • The compound I-1 group: blank Vehicle (blank normal saline control), 0.1 mg/kg, 0.5 mg/kg, 1 mg/kg, 5 mg/kg and 10 mg/kg; • The S-duloxetine group: blank Vehicle (blank normal saline control), 1 mg/kg, 5 mg/kg, 10 mg/kg and 20 mg/kg; • The Compound C1 group: blank Vehicle (blank normal saline control), 0.1 mg/kg, 0.5 mg/kg, 1 mg/kg, 5 mg/kg and 10 mg/kg.
After the administration, the mice were placed in a transparent, ventilated plexiglass cylinder, and 1 hour later, 20 μl of 4% formalin solution was injected into the left hind foot plantar of each group of mice with a micro-injector, and foot pain response in mice were recorded in real time with a miniature camera. The length of time of licking the left foot was used as an indicator of pain response, the licking time were observed and recorded during two periods of 0-10 min (phase I) and 10-60 min (phase II) respectively, for statistical analysis, and the half effective dose (ED50) of the 3 compounds were calculated: ED50 refers to the drug dose that reduces the licking time by half compared with the blank control group. The smaller the ED50 value is, the lower the effective analgesic dose of the compound is and the better its analgesic effect is.

The subject of test [6] is acetic acid writhing pain model in mice. In words: Acetic acid writhing pain model in mice. The format is in vivo, ICR mice. The settings on record: 10 mg/kg intragastric, acetic acid 1 hour after administration; normal saline group 49 times. The protocol: ICR mice, male, 22-25 g, were fasted for food 2 h before administration, but can have water. All ICR mice were weighed and randomly grouped with the number of animals>10 per group. […] The mice were administered via intragastric administration according to the weight of mice. 1.5% acetic acid solution (0.1 ml/10 g) was intraperitoneally injected at 1 hour after administration, and the number of times of visceral pain in each group within 30 minutes was observed, the mice were counted once when the abdomen was concave, the trunk and hind legs were extended and the hips were elevated, and the number of times of these phenomena occurred within 30 min was finally counted.

T1 sequence (Q8BLA8 whole entry): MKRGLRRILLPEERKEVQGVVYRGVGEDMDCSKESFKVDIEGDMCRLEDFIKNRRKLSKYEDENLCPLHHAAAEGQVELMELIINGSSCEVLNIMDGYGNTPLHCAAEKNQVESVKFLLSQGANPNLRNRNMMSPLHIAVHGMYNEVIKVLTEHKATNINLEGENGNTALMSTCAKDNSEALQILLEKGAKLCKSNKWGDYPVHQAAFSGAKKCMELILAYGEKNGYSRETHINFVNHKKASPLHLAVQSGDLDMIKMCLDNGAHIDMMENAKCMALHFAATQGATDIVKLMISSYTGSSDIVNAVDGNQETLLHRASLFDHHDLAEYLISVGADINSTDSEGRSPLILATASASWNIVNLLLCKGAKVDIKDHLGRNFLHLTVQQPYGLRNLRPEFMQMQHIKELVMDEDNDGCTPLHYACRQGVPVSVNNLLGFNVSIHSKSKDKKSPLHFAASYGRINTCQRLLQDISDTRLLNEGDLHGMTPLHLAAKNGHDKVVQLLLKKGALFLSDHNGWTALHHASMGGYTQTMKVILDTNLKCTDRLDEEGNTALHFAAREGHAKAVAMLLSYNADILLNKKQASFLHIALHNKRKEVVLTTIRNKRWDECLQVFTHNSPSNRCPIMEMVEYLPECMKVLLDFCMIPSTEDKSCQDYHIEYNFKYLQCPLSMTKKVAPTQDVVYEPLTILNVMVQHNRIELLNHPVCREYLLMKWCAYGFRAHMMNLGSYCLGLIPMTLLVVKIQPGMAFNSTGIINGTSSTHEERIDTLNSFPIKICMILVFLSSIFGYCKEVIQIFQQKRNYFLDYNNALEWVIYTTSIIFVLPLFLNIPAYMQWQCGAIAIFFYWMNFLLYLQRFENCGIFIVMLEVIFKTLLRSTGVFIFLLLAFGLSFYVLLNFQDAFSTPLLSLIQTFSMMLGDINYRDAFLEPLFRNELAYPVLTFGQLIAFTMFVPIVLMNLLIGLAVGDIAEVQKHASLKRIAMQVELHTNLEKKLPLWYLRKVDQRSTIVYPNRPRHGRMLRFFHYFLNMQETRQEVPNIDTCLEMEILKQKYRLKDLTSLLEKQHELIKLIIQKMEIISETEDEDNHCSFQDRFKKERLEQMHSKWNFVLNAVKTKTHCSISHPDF

Turning to `CNCC[C@@H](Oc1cccc2ccccc12)c1cccs1` [R-Duloxetine, R-duloxetine], the IC50 in test [1] was 21 to 50 µM.

For the compound `CCCCN1CCCCC1C(=O)Nc1c(C)cccc1C` (stereo not drawn) [Bupivacaine, bupivacaine], the “PWT” value is given as 11.587 g in test [2] (1 hour after administration, Normal Saline 3.561) and 4.448 g in test [2] (2 hours after administration, Normal Saline 3.382).

As to `NCC1(CC(=O)O)CCCCC1` [Gabapentin, gabapentin], the results for the MPE % in test [3] (0.5 h), in test [3] (1 h) and in test [3] (2 h) were 6.47 ± 5.49%, 14.56 ± 6.18% and 22.66 ± 4.93%, respectively. Further, the “PWT” value in test [4] is given as 6.352 ± 1.897 g.

`CNCC[C@H](Oc1cccc2ccoc12)c1cccs1` [Compound C1, (S)-3-(benzofuran-7-yloxy)-N-methyl-3-(thiophen-2-yl)propan-1-amine]: in test [5], the ED50 worked out at 2.22 mg/kg.

On to `CN1[C@H]2C[C@H](OC(=O)[C@H](CO)c3ccccc3)C[C@@H]1[C@@H](O)C2` [anisodamine, Anisodamine], for which the “number of visceral pains (writhing reactions) within 30 min” value in test [6] is reported as 27 times.

Values taken from US12570643B2, “3-aryloxy-3-five-membered heteroaryl propylamine compound, and crystal form and use thereof” (Shanghai Leado Pharmatech Co. Ltd., priority 2019, dated 2026).
